Legend:
Experiment in all cases: relative viability (nuclei count vs DMSO), 5 days (fraction); higher = more cells survive
TPCA-1 + Luminespib = compound: C1=CC(=CC=C1C2=CC(=C(S2)NC(=O)N)C(=O)N)F [TPCA-1] + CCNC(=O)c1noc(-c2cc(C(C)C)c(O)cc2O)c1-c1ccc(CN2CCOCC2)cc1 [Luminespib] (partner 0.01 µM)
In short: (§1)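 Values are medians from duplicate plates. Each reflects relative viability, defined as the nuclei count of treated wells over that of vehicle wells. Lung cancer cell lines in 1536-well plates were pin-tool dosed one day after seeding with one drug alone or with a fixed anchor-drug dose plus five library-drug doses (not always all listed) in √10 steps, then fixed, stained and imaged at 4× after 5 days.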

TPCA-1 + Olaparib = compound: C1=CC(=CC=C1C2=CC(=C(S2)NC(=O)N)C(=O)N)F [TPCA-1] + O=C(c1cc(Cc2n[nH]c(=O)c3ccccc23)ccc1F)N1CCN(C(=O)C2CC2)CC1 [Olaparib] (partner 8 µM)
In short: as §1

Lestaurtinib + Lapatinib = compound: C[C@]12O[C@H](C[C@]1(O)CO)n1c3ccccc3c3c4c(c5c6ccccc6n2c5c31)CNC4=O [Lestaurtinib] + CS(=O)(=O)CCNCc1ccc(-c2ccc3ncnc(Nc4ccc(OCc5cccc(F)c5)c(Cl)c4)c3c2)o1 [Lapatinib] (partner 2 µM)
In short: as §1

[1] = compound: C[C@]12O[C@H](C[C@]1(O)CO)n1c3ccccc3c3c4c(c5c6ccccc6n2c5c31)CNC4=O [Lestaurtinib] + Nc1ncn([C@H]2C[C@H](O)[C@@H](CO)O2)c(=O)n1 [Decitabine] (partner 2 µM)
In short: as §1

Cell Line | relative viability (TPCA-1 + Luminespib; first compound 0.04 µM) | relative viability (TPCA-1 + Luminespib; first compound 0.1265 µM) | relative viability (TPCA-1 + Luminespib; first compound 0.4 µM) | relative viability (TPCA-1 + Luminespib; first compound 1.265 µM) | relative viability (TPCA-1 + Luminespib; first compound 4 µM) | relative viability (TPCA-1 + Olaparib; first compound 0.04 µM) | relative viability (TPCA-1 + Olaparib; first compound 0.1265 µM) | relative viability (TPCA-1 + Olaparib; first compound 0.4 µM) | relative viability (TPCA-1 + Olaparib; first compound 1.265 µM) | relative viability (TPCA-1 + Olaparib; first compound 4 µM) | relative viability (Lestaurtinib + Lapatinib; first compound 0.005 µM) | relative viability (Lestaurtinib + Lapatinib; first compound 0.01581 µM) | relative viability (Lestaurtinib + Lapatinib; first compound 0.05 µM) | relative viability (Lestaurtinib + Lapatinib; first compound 0.1581 µM) | relative viability (Lestaurtinib + Lapatinib; first compound 0.5 µM) | relative viability ([1]; first compound 0.005 µM) | relative viability ([1]; first compound 0.01581 µM) | relative viability ([1]; first compound 0.05 µM) | relative viability ([1]; first compound 0.1581 µM) | relative viability ([1]; first compound 0.5 µM)
NCI-H2347 | 0.694 | 0.33 | 0.344 | 0.453 | 0.242 | 0.565 | 0.54 | 0.607 | 0.578 | 0.545 | 0.938 | 0.968 | 0.871 | 0.65 | 0.613 | 0.587 | 0.651 | 0.57 | 0.512 | 0.496
NCI-H2405 | 0.792 | 0.627 | 0.709 | 0.622 | 0.618 | 0.908 | 0.833 | 0.951 | 0.717 | 0.691 | 1.06 | 1.14 | 1.02 | 0.927 | 0.428 | 0.728 | 0.77 | 0.742 | 0.638 | 0.413
NCI-H3122 | 0.106 | 0.0887 | 0.0804 | 0.0762 | 0.0832 | 0.627 | 0.605 | 0.594 | 0.588 | 0.439 | 1.07 | 1.05 | 1.02 | 0.98 | 0.414 | 0.47 | 0.582 | 0.465 | 0.453 | 0.424
PC-3 [JPC-3] | 0.5 | 0.639 | 0.682 | 0.675 | 0.569 | 1.19 | 1.17 | 1.11 | 1.05 | 1 | 0.425 | 0.498 | 0.456 | 0.414 | 0.335 | 0.814 | 0.829 | 0.915 | 0.816 | 0.733
PC-14 | 0.133 | 0.165 | 0.177 | 0.146 | 0.143 | 0.295 | 0.324 | 0.308 | 0.327 | 0.341 | 0.437 | 0.378 | 0.325 | 0.286 | 0.31 | 0.244 | 0.223 | 0.237 | 0.207 | 0.0672
RERF-LC-KJ | 1.3 | 1.25 | 1.26 | 1.14 | 0.852 | 0.952 | 0.857 | 0.884 | 0.911 | 0.78 | 0.868 | 0.839 | 0.731 | 0.758 | 0.704 | 0.869 | 0.791 | 0.563 | 0.562 | 0.241
SK-LU-1 | 0.232 | 0.203 | 0.212 | 0.206 | 0.215 | 0.544 | 0.37 | 0.428 | 0.418 | 0.315 | 0.732 | 0.805 | 0.473 | 0.402 | 0.2 | 0.634 | 0.607 | 0.48 | 0.424 | 0.349
SK-MES-1 | 0.876 | 0.763 | 0.677 | 0.33 | 0.365 | 0.696 | 0.577 | 0.801 | 0.611 | 0.369 | 0.529 | 0.453 | 0.374 | 0.324 | 0.285 | 0.36 | 0.441 | 0.321 | 0.282 | 0.142
SW 1573 | 0.186 | 0.181 | 0.217 | 0.204 | 0.188 | 0.539 | 0.414 | 0.481 | 0.476 | 0.48 | 1.33 | 1.16 | 1.02 | 0.767 | 0.738 | 0.562 | 0.601 | 0.45 | 0.352 | 0.103
